Tests used:
[1] = Intrinsic clearance in human hepatocytes assessed per million cells at 1 uM incubated for 5 to 90 mins by LC-MS/MS method; assay type: ADME, cell-based, Hepatocyte; details: read-out: CLH
TK6 [2] = test: Genotoxicity in human TK6 cells incubated for 3 hrs in presence of aroclor-1254-induced rat S9 fraction followed by 27 hrs recovery period by Giemsa staining dependent optical microscopy based micronucleus test; assay type: toxicity, cell-based; details: s9, 3 h
Mus musculus [3] = test: (§1) In vivo inverse agonist activity at RORgamma in wild type BALB/c ByJ Rj mouse model of imiquimod-induced skin inflammation model assessed as attenuation of imiquimod-induced epidermal hyperplasia at 3% administered topically twice daily for 7 days dosed 2 hrs before and 6 hrs after imiquimod administration measured on day 8 by hematoxylin and eosin staining-based histological analysis; assay type: functional
Salmonella typhimurium [4] = test: Genotoxicity in Salmonella typhimurium TA100 in presence of aroclor-1254-induced rat S9 fraction by Ames test; assay type: toxicity, organism-based; details: salmonella enterica subsp. enterica serovar typhimurium
[5] = Stability of the compound in PG/EtOH96 (3/7) solution at 40 degC after 1 month by HPLC analysis; assay type: physicochemical; details: read-out: Stability
Salmonella typhimurium [6] = test: Genotoxicity in Salmonella typhimurium TA98 in absence of aroclor-1254-induced rat S9 fraction by Ames test; assay type: toxicity, organism-based; details: salmonella enterica subsp. enterica serovar typhimurium
Vitamin D3 receptor = biological target: T1, Vitamin D3 receptor (Homo sapiens, UniProt P11473)
T1 sequence (P11473 whole entry): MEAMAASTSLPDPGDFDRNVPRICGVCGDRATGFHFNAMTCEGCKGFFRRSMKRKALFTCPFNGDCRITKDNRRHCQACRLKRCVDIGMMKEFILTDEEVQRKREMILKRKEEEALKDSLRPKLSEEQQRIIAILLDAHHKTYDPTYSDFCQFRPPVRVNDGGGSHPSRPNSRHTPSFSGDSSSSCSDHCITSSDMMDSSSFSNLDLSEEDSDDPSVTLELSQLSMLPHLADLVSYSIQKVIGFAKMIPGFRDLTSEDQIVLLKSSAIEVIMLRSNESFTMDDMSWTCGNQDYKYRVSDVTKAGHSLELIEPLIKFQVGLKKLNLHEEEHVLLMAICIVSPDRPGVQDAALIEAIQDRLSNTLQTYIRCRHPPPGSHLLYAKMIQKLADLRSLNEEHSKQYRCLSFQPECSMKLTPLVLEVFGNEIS
Description: Activity at VDR expressed in human HeLa-derived HDLN6 cells assessed as inhibition of transcriptional activity after 18 hrs by luminescence-based luciferase reporter gene assay

[7] = Phototoxicity against human neonatal keratinocytes assessed as cell viability preincubated for 30 mins before 5 J/cm2 UV light irradiation for 15 mins followed by treatment medium replacement with fresh culture medium after 24 hrs by neutral red dye-based assay; details: 0.25 h
Salmonella typhimurium [8] = test: Genotoxicity in Salmonella typhimurium TA98 in presence of aroclor-1254-induced rat S9 fraction by Ames test; assay type: toxicity, organism-based; details: salmonella enterica subsp. enterica serovar typhimurium
TK6 [9] = test: Genotoxicity in human TK6 cells incubated for 27 hrs in absence of aroclor-1254-induced rat S9 fraction by Giemsa staining dependent optical microscopy based micronucleus test; assay type: toxicity, cell-based; details: tk6, 27 h
[10] = biological target: T2, Peroxisome proliferator-activated receptor gamma (Homo sapiens, UniProt P37231)
T2 sequence (P37231 whole entry): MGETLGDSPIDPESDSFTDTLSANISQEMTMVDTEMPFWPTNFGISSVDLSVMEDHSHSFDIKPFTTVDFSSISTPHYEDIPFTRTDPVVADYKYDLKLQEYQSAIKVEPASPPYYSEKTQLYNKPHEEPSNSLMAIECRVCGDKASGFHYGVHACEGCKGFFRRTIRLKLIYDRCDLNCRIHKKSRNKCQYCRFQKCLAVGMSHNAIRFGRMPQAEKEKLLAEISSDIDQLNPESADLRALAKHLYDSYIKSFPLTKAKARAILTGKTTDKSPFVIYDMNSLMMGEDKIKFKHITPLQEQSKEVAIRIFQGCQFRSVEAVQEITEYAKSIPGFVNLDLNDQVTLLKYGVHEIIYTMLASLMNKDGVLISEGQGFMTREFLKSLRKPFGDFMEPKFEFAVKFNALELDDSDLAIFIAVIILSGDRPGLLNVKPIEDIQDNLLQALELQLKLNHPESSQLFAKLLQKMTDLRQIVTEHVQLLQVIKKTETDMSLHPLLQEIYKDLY
Description: Activity at PPARgamma (unknown origin) expressed in human HeLa-derived HG5LN cells transfected with the GAL4 DNA-binding domain fused to the PPARgamma ligand-binding domain assessed as inhibition of transcriptional activity after 18 hrs by luminescence-based luciferase reporter gene assay

Mus musculus [11] = test: as §1, with “1%” for “3%”; assay type: functional
[12] = biological target: T3, Nuclear receptor ROR-alpha (Homo sapiens, UniProt P35398); test: Inverse agonist activity at RORalpha (unknown origin) expressed in human HeLa-derived HG5LN cells transfected with the GAL4 DNA-binding domain fused to the RORalpha ligand-binding domain assessed as inhibition of transcriptional activity after 18 hrs by luminescence-based luciferase reporter gene assay; assay type: cell-based
T3 sequence (P35398 whole entry): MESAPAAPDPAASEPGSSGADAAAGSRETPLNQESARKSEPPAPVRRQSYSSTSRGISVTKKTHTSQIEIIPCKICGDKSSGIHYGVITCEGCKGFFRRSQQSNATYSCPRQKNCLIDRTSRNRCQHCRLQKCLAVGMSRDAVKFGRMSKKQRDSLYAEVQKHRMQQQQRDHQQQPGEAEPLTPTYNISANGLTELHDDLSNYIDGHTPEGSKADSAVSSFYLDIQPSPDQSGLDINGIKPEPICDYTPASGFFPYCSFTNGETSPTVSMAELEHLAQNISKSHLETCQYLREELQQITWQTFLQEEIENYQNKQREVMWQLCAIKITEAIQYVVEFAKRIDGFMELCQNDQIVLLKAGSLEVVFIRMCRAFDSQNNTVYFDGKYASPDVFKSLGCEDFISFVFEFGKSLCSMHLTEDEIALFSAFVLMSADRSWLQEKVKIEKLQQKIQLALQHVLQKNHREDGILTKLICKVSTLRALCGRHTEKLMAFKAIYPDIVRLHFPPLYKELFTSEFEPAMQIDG

TK6 [13] = test: Genotoxicity in human-derived p53-competent TK6 cells expressing GADD45a-dependent green fluorescent protein assessed as decrease in cell viability after 48 hrs in absence of Sprague-Dawley rat S9 fraction by FACS analysis; assay type: toxicity, cell-based; details: tk6, 48 h
Mus musculus [14] = test: as §1, with “0.5 to 6%” for “3%”; assay type: functional, organism-based
[15] = Fraction unbound in human plasma at 5 uM incubated for 4 hrs at 37 degC by LC-MS/MS method; assay type: ADME, cell-free
Mus musculus [16] = test: as §1, with “0.5%” for “3%”; assay type: functional
Mus musculus [17] = test: as §1, with “6%” for “3%”; assay type: functional

hepatocyte CLint at 1 µM [1]: 180 µL/min/1e6 cells
remaining at 730.5 h [5]: > 98%
Kd (Vitamin D3 receptor): > 10 µM
Kd [10]: > 10 µM
IC50 [12]: > 10 µM
fraction unbound at 4 h, 5 µM [15]: 0.048
Compound: CCc1ccc(N(CC(C)C)S(=O)(=O)c2ccc(OCC3CCOCC3)c([S@@](C)(=N)=O)c2)cc1
Activity (TK6 [2]): Non-Toxic
Activity (Mus musculus [3]): 46%
Activity (Salmonella typhimurium [4]): Non-Toxic
Activity (Salmonella typhimurium [6]): Non-Toxic
Activity [7]: Non-Toxic
Activity (Salmonella typhimurium [8]): Non-Toxic
Activity (TK6 [9]): Non-Toxic
Activity (Mus musculus [11]): 35%
Activity (TK6 [13]): Non-Toxic
Activity (Mus musculus [14]): Dose-dependent effect
Activity (Mus musculus [16]): 29%
Activity (Mus musculus [17]): 63%

Reference: ChEMBL document CHEMBL4219169, “Sulfoximines as potent RORγ inverse agonists” (Bioorg Med Chem Lett, 2018)
